Data as given in patent EP0146219A1, “Aminophosphonic & aminophosphinic acid derivatives processes for their preparation & herbicidal compositions containing them” (priority 1983, dated 1985).
Counter-ions that a name gives are not always drawn.

Experiments:
[1] = test system: Convolvulus arvensis; experiment: soil-applied (pre-emergence) test in planted trays, visual percent inhibition; assay type: in vivo; conditions: 336 h, read-out: % inhibition. B; for inhibition at 1000 g/ha: rate 1.0 KG/HECTARE
Protocol: (§1) Plastic trays were planted with green cynondon dactylon, convolvulus arvensis and sinapis arvensis and covered with a good grade of top soil. All materials were applied with a laboratory sprayer that delivered a volume of 187 1/hectare. The trays of soil were thereafter watered lightly to activate the aminotriazole salts. The experiment was conducted twice and each was arranged in a completely random design with three replications. Visual estimates of percent inhibition were made at two weeks after treatment.

[2] = test system: cynodon dactylon; experiment: as above; assay type: in vivo; conditions: 336 h; for inhibition at 1000 g/ha: rate 1.0 KG/HECTARE
Protocol: as §1

[3] = test system: sinapis arvensis; experiment: as above; assay type: in vivo; conditions: Mutarda arvensis, 336 h, read-out: % inhibition. C; for inhibition at 1000 g/ha: rate 1.0 KG/HECTARE
Protocol: as §1

[4] = solubility and crystallization of the salts in water; assay type: physicochemical; conditions: for solubility: at room temperature
[5] = test system: various plant species; experiment: post-emergence herbicidal activity, overall comparison; assay type: in vivo; conditions: for herbicidal activity compared with the related amine (IPA) salt: post-emergence, Tables II and III
Description: (§2) The spray, a water solution containing active ingredient and a surfactant is applied to the plants in different sets of pans at several rates (kilogram per dunam) of active ingredient. The treated plants are placed in a greenhouse and the effects are observed and recorded after 4 days (table II) and after 2 weeks (table III). The post-emergence herbicidal activity index used in Table II and III is as follows: […]

[6] = test system: Agropyron repens (quackgrass); experiment: post-emergence herbicidal activity (spray, greenhouse); assay type: in vivo; conditions: after 2 weeks; spray to 21 day old plants; active ingredient mole/l: I 0.022, II 0.043, III 0.03, IV 0.043, V 0.043; also: key: 0: No injury; 1: Slight injury; 2: Moderate injury; 3: Severe injury; 4: Killed
Description: as §2

[7] = test system: Avena sterilis; experiment: as above; assay type: in vivo; conditions: after 2 weeks; spray to 21 day old plants; active ingredient mole/l: I 0.022, II 0.043, III 0.03, IV 0.043, V 0.043; also: key: 0: No injury; 1: Slight injury; 2: Moderate injury; 3: Severe injury; 4: Killed
Description: as §2

[8] = test system: Convolvulus arvensis; experiment: as above; assay type: in vivo; conditions: after 2 weeks; spray to 21 day old plants; active ingredient mole/l: I 0.022, II 0.043, III 0.03, IV 0.043, V 0.043
Description: as §2

[9] = test system: Cynodon daotylon; experiment: as above; assay type: in vivo; conditions: after 2 weeks; spray to 21 day old plants; active ingredient mole/l: I 0.022, II 0.043, III 0.03, IV 0.043, V 0.043; also: key: 0: No injury; 1: Slight injury; 2: Moderate injury; 3: Severe injury; 4: Killed
Description: as §2

[10] = test system: Inula Viscosa; experiment: as above; assay type: in vivo; conditions: after 2 weeks; spray to 21 day old plants; active ingredient mole/l: I 0.022, II 0.043, III 0.03, IV 0.043, V 0.043
Description: as §2

[11] = test system: Pennisetum clandestinum; experiment: as above; assay type: in vivo; conditions: after 2 weeks; spray to 21 day old plants; active ingredient mole/l: I 0.022, II 0.043, III 0.03, IV 0.043, V 0.043
Description: as §2

[12] = test system: Phragmites australis; experiment: as above; assay type: in vivo; conditions: after 2 weeks; spray to 21 day old plants; active ingredient mole/l: I 0.022, II 0.043, III 0.03, IV 0.043, V 0.043
Description: as §2

[13] = test system: Polygonum equiseliforme; experiment: as above; assay type: in vivo; conditions: after 2 weeks; spray to 21 day old plants; active ingredient mole/l: I 0.022, II 0.043, III 0.03, IV 0.043, V 0.043
Description: as §2

[14] = test system: Rubus Sanguineus; experiment: as above; assay type: in vivo; conditions: after 2 weeks; spray to 21 day old plants; active ingredient mole/l: I 0.022, II 0.043, III 0.03, IV 0.043, V 0.043
Description: as §2

[15] = test system: Cyperus Rotundus; assay type: in vivo; conditions: after 2 weeks; spray to 21 day old plants; active ingredient mole/l: I 0.022, II 0.043, III 0.03, IV 0.043, V 0.043
Description: The spray, a water solution containing active ingredient and a surfactant is applied to the plants in different sets of pans at several rates (kilogram per dunam) of active ingredient. […] The post-emergence herbicidal activity index used in Table II and III is as follows: […]

[16] = herbicidal activity when applied to the soil (statement in the text); assay type: in vivo; conditions: soil application
[17] = rate 0.5 KG/HECTARE, two weeks after treatment
[18] = rate 1.5 KG/HECTARE, two weeks after treatment
For post-emergence herbicidal activity index, TABLE III, G in this document: key: 0: No injury; 1: Slight injury; 2: Moderate injury; 3: Severe injury; 4: Killed.

SMILES	inhibition at 1000 g/ha ([1]; two weeks after treatment)	inhibition at 1000 g/ha ([2]; two weeks after treatment)	inhibition at 1000 g/ha ([3]; two weeks after treatment)	herbicidal activity compared with the related amine (IPA) salt [5]	post-emergence herbicidal activity index, TABLE III, J [6]	post-emergence herbicidal activity index, TABLE III, H [7]	post-emergence herbicidal activity index, TABLE III, G [8]	post-emergence herbicidal activity index, TABLE III, F [9]	post-emergence herbicidal activity index, TABLE III, C [10]	post-emergence herbicidal activity index, TABLE III, E [11]	post-emergence herbicidal activity index, TABLE III, D [12]	post-emergence herbicidal activity index, TABLE III, A [13]	post-emergence herbicidal activity index, TABLE III, B [14]	post-emergence herbicidal activity index, TABLE III, I [15]	also measured
O=C(O)CNCP(=O)(O)O [I, Di(3-amino-1,2,4-triazole)NPMG salt]	90%	80%	90%	at least the same result	–	–	–	–	–	–	–	–	–	–	inhibition at 500 g/ha [1, 17]: 80%; inhibition at 500 g/ha [2, 17]: 45%; inhibition at 500 g/ha [3, 17]: 60%; crystalization ([4]; at 0^oc): no crystalization; solubility ([4]; listed as NPMG-Diaminotriazole salt): at least 1000 g/1; antagonistic interaction ([5]; applied to many species of weed, especially quackgrass): no antagonistic interaction; speed of phytotoxic action (knock down effect) ([5]; first 4 days after application, compared with amine salt IV): faster phytotoxic action
O=C(O)CN(CC(=O)O)CP(=O)(O)O [II, Di(3-amino-1,2,4-triazole)NPMIDA salt]	–	–	–	far more superior activity	2	3	2	2	3	3	3	3	2	3	inhibition at 700 g/ha [1]: 55%; inhibition at 1200 g/ha [1]: 70%; inhibition at 700 g/ha ([2]; read-out: % inhibition. A): 40%; inhibition at 1200 g/ha ([2]; read-out: % inhibition. A): 70%; inhibition at 700 g/ha [3]: 65%; inhibition at 1200 g/ha [3]: 80%
CP(=O)(O)CCC(N)C(=O)O (stereo not drawn) [III, Di(3-amino-1,2,4-triazole)Phosphino-thricine salt.]	30%	10%	30%	–	3	3	3	3	3	3	2	3	3	3	inhibition at 1500 g/ha [1, 18]: 50%; inhibition at 1500 g/ha [2, 18]: 20%; inhibition at 1500 g/ha [3, 18]: 60%
O=C(O)CNCP(=O)(O)O [IV, Mono(Isopropylamine)NPMG salt (ROUNDUP^(R)), reference compound]	–	–	–	–	–	–	–	–	–	–	–	–	–	–	crystalization ([4]; at lower temperature (0-S^oc)): crystalization of the salt may occur; solubility ([4]; listed as NPMG.IPA): 480 g/1; herbicidal activity when applied to the soil [16]: little herbicidal activity
O=C(O)CN(CC(=O)O)CP(=O)(O)O [V, Mono(Isopropylamine)NPMIDA salt, reference compound]	–	–	–	–	1	1	0	0	2	1	1	1	1	1	–
